Test results published in US20180015088A1, “SITE SPECIFIC DOSING OF A BTK INHIBITOR” (Principia Biopharma Inc., priority 2014, published 2018).
Where two headings read alike, the source gives them in different places.

Assays:
[1] = Solubility of Compound (I) at low pH; type: physicochemical
[2] = tested on: intestinal tissue (stomach, duodenum, jejunum, ileum, colon); assay: In vitro permeation in Ussing chambers through different intestinal regions of rat; type: in vitro ADME, Sprague-Drawley rats; conditions: 100 uM, mucosal to serosal, distal regions compared to stomach or duodenum, FIG. 7
Description: Reagents: 10× Krebs-Ringer buffer (KRB) comprised of 1.26M NaCl (Promega, Madison, Wis.), 25mM KCl, 250 mM NaHCO3, 12 mM NaH2PO4, 12 mM MgCl2, 25 mM CaCl2 and 18 g/L D-Glucose (all from Sigma Aldrich, St. Louis, Mo.) prepared and stored individually to prevent crystallization. Dilute to 1× working concentration prior to use and pH adjusted with either carbogen perfusion for 20 mins to pH 7.4 (oxygenated KRB) or 1M HCl (Alfar Aesar, Ward Hill, Mass.) to pH 3.5, 6.5 or 7.4. 0.1% Phenol red, Antipyrine and Atenolol were purchased from Sigma Aldrich, St. Louis, Mo.
Harvest and preparation of intestinal tissue: 4 to 9 month old adult female virgin Sprague-Drawley rats (Harlan Laboratories, Livermore, Calif.) were acclimated in-house for a minimum of 3 days prior to experimentation. Adolescent and geriatric animals should be avoided to prevent age-related differences in gastro-intestinal morphology and function. Animals were housed under IACUC-approved husbandry protocols including 12-hour light and 12-hour dark cycles, and allowed standard chow and water ad libitum. Tissue harvest should be performed one animal at a time to maintain tissue viability. […]

[3] = Site specific gastrointestinal dosing (oral gavage, intraduodenal, intrajejunal) in rats, plasma AUC; type: in vivo, Wister-Hans rats; conditions: for AUC: Wister-Hans, rat, plasma
Description: Compound (I) was dosed in 10 mg/mL aqueous citrate solution at 20 mg/kg to Wister-Hans rats. Free base of Compound (I) was dissolved in aqueous solution of citric acid (containing 0.5 equivalents of anhydrous citiric acid) . The experiment was repeated 3 times each with 2 separate arms, and one oral (PO) gavage arm was included in each study. Intra-jejunal (IJ) and intra-duodenal (ID) dosing was done in cannulated rats. In the first study, there was about 40-fold increase in the AUC for the IJ-dosed group compared to the PO group, and the major metabolite, present in the PO arm was reduced by 20 fold in the IJ-group.

[4] = Solubility of the salt in water at ambient temperature; type: physicochemical
Description: To the solution of (R)-2-[3-[4-amino-3-(2-fluoro-4-phenoxy-phenyl)pyrazolo[3,4-d]pyrimidin-1-yl]piperidine-1-carbonyl]-4-methyl-4-[4-(oxetan-3-yl)piperazin-1-yl]pent-2-enenitrile (having about 9/1 E/Z ratio) (4.2 g) in EtOAc (60 mL, 15 vol) was added sulfuric acid (0.31 g, 0.17 mL, 0.5 eq) in EtOAc (20 mL, 5 vol) at ambient temperature. The suspension was stirred at ambient temperature for ˜2 hr and then 40° C. for 4 hr and then at ambient temperature for at least 1 hr. After filtration and drying at ambient temperature under vacuum, 1.5 g of white powder was obtained. Solubility of the hemi-sulfate at ambient temperature was >100 mg/mL in water.

Row | SMILES | solubility at low pH [1] | permeability (Papp) by region of the GI tract [2] | increase in AUC, ID compared to oral gavage ([3]; ID vs PO) | metabolic stability by site of administration ([3]; IJ dosing compared to oral gavage) | AUC ([3]; 20 mg/kg, intraduodenum cannula, 20 mg/kg, aqueous citrate solution, read-out: AUC, intraduodenal (ID) dosing) [ng·h/mL] | AUC ([3]; other: intrajejunal, 20 mg/kg, intrajejunum cannula, 20 mg/kg, aqueous citrate solution, read-out: AUC, intrajejunal (IJ) dosing) [ng·h/mL] | AUC ([3]; po, 20 mg/kg, oral (PO) gavage, 20 mg/kg, 10 mg/mL aqueous citrate solution, read-out: AUC, oral gavage) [ng·h/mL] | AUC, intrajejunal (IJ) dosing ([3]; intrajejunum cannula, 20 mg/kg, aqueous citrate solution) | AUC, oral gavage ([3]; oral (PO) gavage, 20 mg/kg, 10 mg/mL aqueous citrate solution) [ng·h/mL] | solubility [4] [mg/mL]
1 | CC(C)(C=C(C#N)C(=O)N1CCCC(n2nc(-c3ccc(Oc4ccccc4)cc3F)c3c(N)ncnc32)C1)N1CCN(C2COC2)CC1 [Compound (I), (R)-2-[3-[4-amino-3-(2-fluoro-4-phenoxy-phenyl)pyrazolo[3,4-d]pyrimidin-1-yl]piperidine-1-carbonyl]-4-methyl-4-[4-(oxetan-3-yl)piperazin-1-yl]pent-2-enenitrile] | greater than 10 % (w/v) | statistically increased permeabilities | approximately 2 fold | more metabolically stable | 1780 | 14400 | 668 to 1640 | 26,800 ng*hr/ml | 994 | 
2 | CC(C)(C=C(C#N)C(=O)N1CCC[C@@H](n2nc(-c3ccc(Oc4ccccc4)cc3F)c3c(N)ncnc32)C1)N1CCN(C2COC2)CC1 [hemi-sulfate, (R)-2-[3-[4-amino-3-(2-fluoro-4-phenoxy-phenyl)pyrazolo[3,4-d]pyrimidin-1-yl]piperidine-1-carbonyl]-4-methyl-4-[4-(oxetan-3-yl)piperazin-1-yl]pent-2-enenitrile] |  |  |  |  |  |  |  |  |  | > 100
